# Measured values as given in ChEMBL document CHEMBL1909046, “DrugMatrix in vitro pharmacology data”.
# Target: T1, Alpha-2A adrenergic receptor (Homo sapiens, UniProt P08913); further: in other assays of this panel Not Active means under 50% inhibition at 10 µM
# T1 sequence (P08913 whole entry): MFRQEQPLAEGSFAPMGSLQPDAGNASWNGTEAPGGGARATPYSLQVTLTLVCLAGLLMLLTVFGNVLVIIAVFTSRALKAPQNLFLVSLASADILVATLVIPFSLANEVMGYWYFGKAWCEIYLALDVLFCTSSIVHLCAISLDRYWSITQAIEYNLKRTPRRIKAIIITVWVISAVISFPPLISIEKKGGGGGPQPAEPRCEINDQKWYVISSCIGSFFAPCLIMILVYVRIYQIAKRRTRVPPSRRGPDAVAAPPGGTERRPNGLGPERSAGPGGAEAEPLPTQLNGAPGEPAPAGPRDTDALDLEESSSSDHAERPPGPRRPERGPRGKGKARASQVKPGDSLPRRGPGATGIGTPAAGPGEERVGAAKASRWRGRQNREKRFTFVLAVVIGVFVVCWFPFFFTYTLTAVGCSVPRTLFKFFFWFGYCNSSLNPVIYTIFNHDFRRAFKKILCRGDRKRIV
# Assay type: cell membranes, Sf9, Membrane
# Settings: sf9
row,Compound,IC50
1,O=C(O)CO [GLYCOLIC ACID],Not Active
2,COC(=O)C[C@](O)(CCC(C)(C)O)C(=O)O[C@@H]1C(OC)=C[C@]23CCCN2CCc2cc4c(cc2[C@H]13)OCO4 [HARRINGTONINE],Not Active
3,CC12CCC(CC1=O)C2(C)C (stereo not given) [CAMPHOR],Not Active
4,CCN1CCN(C(=O)N[C@@H](C(=O)N[C@@H]2C(=O)N3[C@@H]2SC(C)(C)[C@@H]3C(=O)O)c2ccccc2)C(=O)C1=O [PIPERACILLIN],Not Active
5,C=CCO [ALLYL ALCOHOL],Not Active
6,O=C(O)CCc1nc(-c2ccccc2)c(-c2ccccc2)o1 [OXAPROZIN],Not Active

# System: not listed separately
# Assay: DRUGMATRIX: Glutamate, NMDA, Phencyclidine radioligand binding (ligand: [3H] TCP)
# Assay type: cell membranes, Rattus norvegicus, Wistar, Cerebral cortex, Membrane
# Settings: Not Active = under 50% inhibition at 10 µM
Compound,IC50,Ki
O=C(O)CO [GLYCOLIC ACID],Not Active,Not Active
COC(=O)C[C@](O)(CCC(C)(C)O)C(=O)O[C@@H]1C(OC)=C[C@]23CCCN2CCc2cc4c(cc2[C@H]13)OCO4 [HARRINGTONINE],Not Active,Not Active
CC12CCC(CC1=O)C2(C)C (stereo not given) [CAMPHOR],Not Active,Not Active
CCN1CCN(C(=O)N[C@@H](C(=O)N[C@@H]2C(=O)N3[C@@H]2SC(C)(C)[C@@H]3C(=O)O)c2ccccc2)C(=O)C1=O [PIPERACILLIN],Not Active,Not Active
C=CCO [ALLYL ALCOHOL],Not Active,Not Active
O=C(O)CCc1nc(-c2ccccc2)c(-c2ccccc2)o1 [OXAPROZIN],Not Active,Not Active

# System: not listed separately
# Assay: DRUGMATRIX: Platelet-Derived Growth Factor (PDGF) radioligand binding (ligand: [125I] PDGF)
# Assay type: cell-based
# Settings: nih3t3; Not Active = under 50% inhibition at 10 µM
Compound,IC50,Ki
O=C(O)CO [GLYCOLIC ACID],Not Active,Not Active
COC(=O)C[C@](O)(CCC(C)(C)O)C(=O)O[C@@H]1C(OC)=C[C@]23CCCN2CCc2cc4c(cc2[C@H]13)OCO4 [HARRINGTONINE],Not Active,Not Active
CC12CCC(CC1=O)C2(C)C (stereo not given) [CAMPHOR],Not Active,Not Active
CCN1CCN(C(=O)N[C@@H](C(=O)N[C@@H]2C(=O)N3[C@@H]2SC(C)(C)[C@@H]3C(=O)O)c2ccccc2)C(=O)C1=O [PIPERACILLIN],Not Active,Not Active
C=CCO [ALLYL ALCOHOL],Not Active,Not Active
O=C(O)CCc1nc(-c2ccccc2)c(-c2ccccc2)o1 [OXAPROZIN],Not Active,Not Active

# Target: Mitogen-activated protein kinase 3 (Homo sapiens, UniProt P27361)
# Sequence (P27361 whole entry): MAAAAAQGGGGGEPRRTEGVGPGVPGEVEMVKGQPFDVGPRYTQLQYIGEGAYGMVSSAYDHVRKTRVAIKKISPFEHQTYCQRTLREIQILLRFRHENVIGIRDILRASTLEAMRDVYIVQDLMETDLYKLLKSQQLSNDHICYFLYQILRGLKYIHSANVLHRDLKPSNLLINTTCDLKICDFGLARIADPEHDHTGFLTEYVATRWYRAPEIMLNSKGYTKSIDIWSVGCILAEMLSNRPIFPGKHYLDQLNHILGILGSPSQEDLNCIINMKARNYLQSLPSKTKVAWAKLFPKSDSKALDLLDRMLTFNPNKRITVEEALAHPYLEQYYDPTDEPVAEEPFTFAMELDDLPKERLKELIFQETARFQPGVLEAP
# Assay: DRUGMATRIX: Protein Serine/Threonine Kinase, ERK1 enzyme inhibition (substrate: Myelin Basic Protein)
# Design: species or system Escherichia coli
# Settings: Not Active = under 50% inhibition at 10 µM
row,Compound,IC50
1,O=C(O)CO [GLYCOLIC ACID],Not Active
2,COC(=O)C[C@](O)(CCC(C)(C)O)C(=O)O[C@@H]1C(OC)=C[C@]23CCCN2CCc2cc4c(cc2[C@H]13)OCO4 [HARRINGTONINE],Not Active
3,CC12CCC(CC1=O)C2(C)C (stereo not given) [CAMPHOR],Not Active
4,CCN1CCN(C(=O)N[C@@H](C(=O)N[C@@H]2C(=O)N3[C@@H]2SC(C)(C)[C@@H]3C(=O)O)c2ccccc2)C(=O)C1=O [PIPERACILLIN],Not Active
5,C=CCO [ALLYL ALCOHOL],Not Active
6,O=C(O)CCc1nc(-c2ccccc2)c(-c2ccccc2)o1 [OXAPROZIN],Not Active

# Target: Acetylcholinesterase (Homo sapiens, UniProt P22303)
# Sequence (P22303 whole entry): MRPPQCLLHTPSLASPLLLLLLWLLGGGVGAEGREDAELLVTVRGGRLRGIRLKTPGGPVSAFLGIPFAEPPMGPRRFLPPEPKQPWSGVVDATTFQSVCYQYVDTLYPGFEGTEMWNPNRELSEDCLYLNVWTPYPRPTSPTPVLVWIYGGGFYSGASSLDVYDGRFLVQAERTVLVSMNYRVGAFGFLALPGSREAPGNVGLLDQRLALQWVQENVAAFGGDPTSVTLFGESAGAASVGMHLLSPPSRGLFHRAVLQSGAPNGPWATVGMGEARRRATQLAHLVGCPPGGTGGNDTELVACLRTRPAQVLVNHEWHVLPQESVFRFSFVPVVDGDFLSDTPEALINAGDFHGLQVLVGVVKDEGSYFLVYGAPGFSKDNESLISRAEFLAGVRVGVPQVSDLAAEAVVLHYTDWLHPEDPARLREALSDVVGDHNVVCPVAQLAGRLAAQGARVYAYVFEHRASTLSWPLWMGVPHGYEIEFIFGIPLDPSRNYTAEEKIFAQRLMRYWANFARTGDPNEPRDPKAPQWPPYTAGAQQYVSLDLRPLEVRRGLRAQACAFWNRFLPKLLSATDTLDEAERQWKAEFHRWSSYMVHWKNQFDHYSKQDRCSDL
# Assay: DRUGMATRIX: Acetylcholinesterase enzyme inhibition (substrate: acetylthiocholine)
# Assay type: cell-based, HEK293
# Settings: hek293; Not Active = under 50% inhibition at 10 µM
row,Compound,IC50
1,O=C(O)CO [GLYCOLIC ACID],Not Active
2,COC(=O)C[C@](O)(CCC(C)(C)O)C(=O)O[C@@H]1C(OC)=C[C@]23CCCN2CCc2cc4c(cc2[C@H]13)OCO4 [HARRINGTONINE],Not Active
3,CC12CCC(CC1=O)C2(C)C (stereo not given) [CAMPHOR],Not Active
4,CCN1CCN(C(=O)N[C@@H](C(=O)N[C@@H]2C(=O)N3[C@@H]2SC(C)(C)[C@@H]3C(=O)O)c2ccccc2)C(=O)C1=O [PIPERACILLIN],Not Active
5,C=CCO [ALLYL ALCOHOL],Not Active
6,O=C(O)CCc1nc(-c2ccccc2)c(-c2ccccc2)o1 [OXAPROZIN],Not Active

# Target: Adenosine receptor A2a (Homo sapiens, UniProt P29274)
# Sequence (P29274 whole entry): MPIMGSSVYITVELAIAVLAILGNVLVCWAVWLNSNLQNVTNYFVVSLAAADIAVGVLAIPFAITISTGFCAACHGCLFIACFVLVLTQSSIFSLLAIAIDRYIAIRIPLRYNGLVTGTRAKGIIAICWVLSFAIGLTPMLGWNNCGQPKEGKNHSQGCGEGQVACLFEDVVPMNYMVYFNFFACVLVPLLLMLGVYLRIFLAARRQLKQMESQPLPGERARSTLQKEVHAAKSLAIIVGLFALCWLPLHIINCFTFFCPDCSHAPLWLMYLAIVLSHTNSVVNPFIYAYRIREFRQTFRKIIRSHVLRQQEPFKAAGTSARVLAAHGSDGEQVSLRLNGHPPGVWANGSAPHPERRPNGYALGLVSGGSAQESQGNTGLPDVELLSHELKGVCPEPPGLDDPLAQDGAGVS
# Assay: DRUGMATRIX: Adenosine A2A radioligand binding (ligand: […])
# Assay type: cell membranes, HEK293, Membrane
# Settings: hek293; Not Active = under 50% inhibition at 10 µM
row,Compound,IC50
1,O=C(O)CO [GLYCOLIC ACID],Not Active
2,COC(=O)C[C@](O)(CCC(C)(C)O)C(=O)O[C@@H]1C(OC)=C[C@]23CCCN2CCc2cc4c(cc2[C@H]13)OCO4 [HARRINGTONINE],Not Active
3,CC12CCC(CC1=O)C2(C)C (stereo not given) [CAMPHOR],Not Active
4,CCN1CCN(C(=O)N[C@@H](C(=O)N[C@@H]2C(=O)N3[C@@H]2SC(C)(C)[C@@H]3C(=O)O)c2ccccc2)C(=O)C1=O [PIPERACILLIN],Not Active
5,C=CCO [ALLYL ALCOHOL],Not Active
6,O=C(O)CCc1nc(-c2ccccc2)c(-c2ccccc2)o1 [OXAPROZIN],Not Active

# Target: T2, Cytochrome P450 2A6 (Homo sapiens, UniProt P11509); further: in other assays of this panel Not Active means under 50% inhibition at 10 µM
# T2 sequence (P11509 whole entry): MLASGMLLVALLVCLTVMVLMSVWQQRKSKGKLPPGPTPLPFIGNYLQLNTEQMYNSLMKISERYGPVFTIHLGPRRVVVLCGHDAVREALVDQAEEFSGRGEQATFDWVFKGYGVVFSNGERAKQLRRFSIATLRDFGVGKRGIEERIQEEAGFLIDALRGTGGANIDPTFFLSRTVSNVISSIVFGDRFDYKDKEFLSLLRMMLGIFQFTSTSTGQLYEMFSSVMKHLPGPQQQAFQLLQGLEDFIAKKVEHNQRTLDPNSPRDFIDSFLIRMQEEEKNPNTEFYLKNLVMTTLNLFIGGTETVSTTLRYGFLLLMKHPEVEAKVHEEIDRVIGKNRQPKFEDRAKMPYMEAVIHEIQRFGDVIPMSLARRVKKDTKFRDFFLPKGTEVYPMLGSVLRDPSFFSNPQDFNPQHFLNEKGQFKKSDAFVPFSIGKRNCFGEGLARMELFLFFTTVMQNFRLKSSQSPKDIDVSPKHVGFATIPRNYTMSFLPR
# Settings: bti-tn-5b1-4
Compound,IC50,Ki
O=C(O)CO [GLYCOLIC ACID],Not Active,Not Active
COC(=O)C[C@](O)(CCC(C)(C)O)C(=O)O[C@@H]1C(OC)=C[C@]23CCCN2CCc2cc4c(cc2[C@H]13)OCO4 [HARRINGTONINE],Not Active,Not Active
CC12CCC(CC1=O)C2(C)C (stereo not given) [CAMPHOR],Not Active,Not Active
CCN1CCN(C(=O)N[C@@H](C(=O)N[C@@H]2C(=O)N3[C@@H]2SC(C)(C)[C@@H]3C(=O)O)c2ccccc2)C(=O)C1=O [PIPERACILLIN],Not Active,Not Active
C=CCO [ALLYL ALCOHOL],Not Active,Not Active
O=C(O)CCc1nc(-c2ccccc2)c(-c2ccccc2)o1 [OXAPROZIN],Not Active,Not Active
